Like-named read-outs stand apart in the source and are kept apart here.

Data on 1 molecule can be found in paper PMC5432571 (Frontiers in Molecular Neuroscience, 2017).

Holding throughout (format): cell-based
Experiment [1] has as its target T1, α1β GlyR (Homo sapiens, UniProt P23415+P48167).
T1 construct: expressed in transfected cells; host or cells: CHO cells
Kind of experiment: Whole-cell patch-clamp of glycine-induced currents, heteromeric α1β GlyR expressed in CHO cells. Particulars: glycine 30 μM. Here is the method: (§1) The experiments were carried out on cultured Chinese hamster ovary (CHO) cells obtained from the American Type Tissue Culture Collection (ATCC, Molsheim, France) that were maintained in culture conditions as previously described (Mukhtarov et al., [2013]; Maleeva et al., [2015]).
(§2) One day before transfection, cells were plated on the cover slips (12 mm in diameter) and placed inside 35-mm cell culture dishes with 2 ml of medium. Transfection was performed using the Lipofectamine 3000 protocol (Life Technology, USA). To facilitate identification of transfected cells a green fluorescent protein (GFP) was added to the transfection mixture. For expression of functional heteromeric receptors, cells were simultaneously transfected with cDNAs of α and β subunits in the ratio 1:10. Three hours after the initial exposure of cells to the cDNAs the culture medium was replaced with that containing strychnine (1 μM), which prevents spontaneous activation of GlyRs. Electrophysiological recordings were performed in the fluorescent cells 24–72 h after transfection.
(§3) Whole-cell and outside-out recordings were performed at room temperature (20–25°C) using an EPC-9 amplifier (HEKA Elektronik, Germany). Cells were continuously superfused with external solution containing (mM): NaCl 140, CaCl2 2, KCl 2.8, MgCl2 4, HEPES 20, glucose 10; pH 7.4; 320–330 mOsm. Intracellular solution used for filling recording patch pipettes contained (mM): CsCl 140, CaCl2 6, MgCl2 2, MgATP 2, NaGTP 0.4, HEPES/CsOH 10, BAPTA (tetrapotassium salt) 2; pH 7.3; 290 mOsm. Two different protocols of solutions application were used in this study. […] A “ramp protocol” implies the gradual change of Vhold alternately from −80 to +80 mV and from +80 to −80 mV during 1 s, Vhold was fixed at −80 or +80 mV at the beginning and at the end of the ramp for 500 ms (Figure 2B).
(§4) Recording pipettes were pulled from borosilicate glass capillaries (Harvard Apparatus Ltd, USA) and had resistances of 5–10 MOhm. For the rapid replacement of the solutions, the fast application system was used. Three parallel rectangular tubes (100 × 100 μm) were positioned 40–50 μm above the recorded cell. The movement of the tubes was controlled by a computer-driven fast exchange system (SF 77A Perfusion Fast-Step, Warner, USA) allowing a 10–90% solution exchange in 3–5 ms, as measured by open electrode controls (1/10 external solution/water). Cells with low input resistance (<150 MOhm) and a rapid run-down (>30% with repetitive application) were excluded from analysis.
(§5) Electrophysiological recordings were performed using PatchMaster (HEKA Electronic, Germany) software.

Experiment [2] deals with T2, α2β GlyR (Homo sapiens, UniProt P23416+P48167).
T2 construct: expressed in transfected cells; host or cells: CHO cells
Kind of experiment: Whole-cell patch-clamp of glycine-induced currents, heteromeric α2β GlyR expressed in CHO cells. Particulars: glycine 30 μM. Here is the method: as §1, §2, §3, §4, §5

Experiment [3] addresses T3, α3 GlyR (Homo sapiens, UniProt O75311).
T3 construct: expressed in transfected cells; host or cells: CHO cells
T3 sequence (O75311 34-464): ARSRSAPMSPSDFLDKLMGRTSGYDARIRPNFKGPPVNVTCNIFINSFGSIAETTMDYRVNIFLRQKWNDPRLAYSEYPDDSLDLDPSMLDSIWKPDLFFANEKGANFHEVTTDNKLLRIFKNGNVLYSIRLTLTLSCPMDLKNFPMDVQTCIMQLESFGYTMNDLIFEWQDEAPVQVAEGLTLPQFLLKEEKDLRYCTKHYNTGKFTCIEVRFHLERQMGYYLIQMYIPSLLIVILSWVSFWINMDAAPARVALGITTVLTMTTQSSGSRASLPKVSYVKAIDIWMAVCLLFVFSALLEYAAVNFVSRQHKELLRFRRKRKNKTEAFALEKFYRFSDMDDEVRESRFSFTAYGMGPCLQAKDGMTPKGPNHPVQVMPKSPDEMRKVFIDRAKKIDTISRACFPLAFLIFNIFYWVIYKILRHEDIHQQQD
Kind of experiment: Whole-cell patch-clamp of glycine-induced currents, α3 GlyR expressed in CHO cells. The following applies: glycine 100 μM; for inhibition at 30 µM / inhibition at 300 µM: CHO, long application protocol, read-out: inhibition of α3 GlyR-mediated currents; for inhibition at 30 µM: NFA 30 μM; for inhibition at 300 µM: NFA 300 μM. Here is the method: as §1, §2, §3, §4, §5
It is well documented that α3 GlyRs rapidly desensitize (Nikolic et al., [1998]) and this complicates accurate estimation of the NFA blocking potency.

Where [4] appears, read: +30 mV, representative, read-out: NFA IC50 (representative IC50 curve).
Setting [5] is: +80 mV, mean ± SEM, read-out: IC50 of NFA.
Where [6] appears, read: +80 mV, representative, read-out: NFA IC50 (representative IC50 curve).
Setting [7] is: −30 mV, representative, read-out: NFA IC50 (representative IC50 curve).
Where [8] appears, read: −80 mV, representative, read-out: NFA IC50 (representative IC50 curve).

T2 sequence (P23416 28-452 isoform P23416-2 limits assumed): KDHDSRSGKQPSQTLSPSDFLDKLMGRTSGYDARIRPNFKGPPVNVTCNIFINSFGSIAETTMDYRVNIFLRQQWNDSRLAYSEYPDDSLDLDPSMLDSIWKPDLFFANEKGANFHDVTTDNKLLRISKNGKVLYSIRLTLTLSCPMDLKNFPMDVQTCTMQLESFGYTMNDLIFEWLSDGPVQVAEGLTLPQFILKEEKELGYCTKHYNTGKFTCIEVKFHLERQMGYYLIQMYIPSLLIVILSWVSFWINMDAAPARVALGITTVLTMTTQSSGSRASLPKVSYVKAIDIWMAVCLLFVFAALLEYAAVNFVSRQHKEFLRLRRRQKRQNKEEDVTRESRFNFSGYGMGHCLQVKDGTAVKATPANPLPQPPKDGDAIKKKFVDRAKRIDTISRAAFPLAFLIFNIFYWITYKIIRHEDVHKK
T2 sequence (P48167 23-497): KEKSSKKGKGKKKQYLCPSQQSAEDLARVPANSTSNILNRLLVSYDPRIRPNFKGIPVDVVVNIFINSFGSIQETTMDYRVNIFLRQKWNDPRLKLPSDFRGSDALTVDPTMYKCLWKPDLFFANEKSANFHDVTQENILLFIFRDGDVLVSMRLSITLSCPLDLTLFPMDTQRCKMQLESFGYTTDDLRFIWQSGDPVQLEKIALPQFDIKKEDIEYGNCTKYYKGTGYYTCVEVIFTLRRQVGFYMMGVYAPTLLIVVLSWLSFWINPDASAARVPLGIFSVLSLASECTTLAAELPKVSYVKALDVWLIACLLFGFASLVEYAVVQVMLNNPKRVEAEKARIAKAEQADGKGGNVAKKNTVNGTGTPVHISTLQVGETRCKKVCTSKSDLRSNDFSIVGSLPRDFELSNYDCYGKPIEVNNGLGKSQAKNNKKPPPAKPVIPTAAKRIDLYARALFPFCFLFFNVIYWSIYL
T1 sequence (P23415 29-449 isoform P23415-2 limits assumed): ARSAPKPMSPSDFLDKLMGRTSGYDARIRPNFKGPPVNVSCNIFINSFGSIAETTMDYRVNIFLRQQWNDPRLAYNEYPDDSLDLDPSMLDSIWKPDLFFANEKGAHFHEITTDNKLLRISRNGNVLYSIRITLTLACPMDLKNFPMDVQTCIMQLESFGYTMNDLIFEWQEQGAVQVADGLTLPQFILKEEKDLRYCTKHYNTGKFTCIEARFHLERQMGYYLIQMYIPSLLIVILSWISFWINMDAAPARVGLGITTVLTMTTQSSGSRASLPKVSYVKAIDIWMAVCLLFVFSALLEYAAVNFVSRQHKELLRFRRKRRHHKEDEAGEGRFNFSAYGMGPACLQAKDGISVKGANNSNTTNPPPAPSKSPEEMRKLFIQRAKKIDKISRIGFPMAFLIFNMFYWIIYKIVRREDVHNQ
T1 sequence (P48167 23-497): as the sequence (P48167 23-497) above

Consider `O=C(O)c1cccnc1Nc1cccc(C(F)(F)F)c1` [NFA, Niflumic acid], for which the IC50 in experiment [1] (setting [4]) came to 152 µM; in experiment [1] (setting [5]), 150 ± 14 µM; in experiment [1] (setting [6]) it was 144 µM; in experiment [1] (setting [7]) it was 200 µM; in experiment [1] (setting [8]), 191 µM; in experiment [2] (setting [4]), 24 µM. The IC50 in experiment [2] (setting [5]) is 20 ± 8 µM; in experiment [2] (setting [6]) it was 22 µM; in experiment [2] (setting [7]), 47 µM; in experiment [2] (−80 mV, mean ± SEM, read-out: IC50 of NFA), 107 ± 37 µM; in experiment [2] (setting [8]), 84 µM; in experiment [3] (setting [4]) it was 23 µM. Further, the IC50 in experiment [3] (setting [6]) stood at 10 µM; in experiment [3] (MP +80 mV, mean ± SEM, read-out: IC50 of NFA) it was 16 ± 6 µM; in experiment [3] (MP −80 mV, mean ± SEM, read-out: IC50 of NFA) it was 86 ± 14 µM; in experiment [3] (setting [7]) it was 78 µM; in experiment [3] (setting [8]), 117 µM. Further, the inhibition at 30 µM is 62 ± 5% in experiment [3] (+30 mV) and 32 ± 4% in experiment [3] (−30 mV). Moreover, the inhibition at 300 µM in experiment [3] (+30 mV) was 90 ± 2%; in experiment [3] (−30 mV), 86 ± 5%.
